Converted amounts (≈) assume the structure as drawn.
Columns and labels:
[1] = tested on: experimental bacterial infections; assay: experimental bacterial infections in mice (general statement); format: in vivo
Method: When two doses of these compounds were administered to mice in illustrative infections, the activity observed was measured as an ED50 value [effective dose in mg./kg. to protect 50 percent of the test animals; see Warren Wick, et al., J. Bacteriol. 81, 233-235 (1961)].

[2] = tested on: Neisseria gonorrhea Lind.; assay: gradient-plate agar-dilution method; format: cell-based
Bacteroides fragilis 111 = assay: standard agar-dilution test, anaerobic bacteria; format: cell-based; details: Bacteroides fragilis, 111, 2 h
[3] = tested on: Staphylococcus aureus 3055; assay: experimental bacterial infection in mice; format: in vivo; details: Staphylococcus aureus, 3055, sc, sc, two doses, challenge 1,260 × LD50 (ip), read-out: ED50 × 2
Pasteurella hemolytica = assay: standard in vitro tests, Pasteurella; format: cell-based
Excerpt: (§1) Another veterinary aspect of this invention is the activity of the A-40104 antibiotics against Pasteurella species. P. multocida, for example, is a causative agent of respiratory infection in cattle, poultry, and swine. P. hemolytica is a major cause of respiratory disease in cattle. The activity of A-40104 factor A and its dihydro derivative against Pasteurella, as determined by standard in vitro tests, is summarized in Table X.

[4] = tested on: Pasteurella multocida (bovine); assay: standard in vitro tests, Pasteurella; format: cell-based
Excerpt: as §1

Streptococcus pyogenes [5] = assay: standard disc-plate assay; format: cell-based; details: Group A, disc diameter 6.35 mm, read-out: Zone Diameters
Method: (§2) In one important aspect of this activity, the A-40104 antibiotics inhibit the growth of organisms which are resistant to other antibiotics. In Table IV the standard disc-plate-assay activity of A-40104 factors A and B against representative organisms is summarized. Activity is measured as the diameter (in mm) of the observed zone of inhibition; the diameter of disc used in each case was 6.35 mm.

[6] = tested on: Staphylococcus aureus 3130; assay: standard disc-plate assay; format: cell-based; details: Methicillin resistant, disc diameter 6.35 mm, read-out: Zone Diameters
Method: as §2

Streptococcus sp. 9960 = assay: standard disc-plate assay; format: cell-based; details: Group D, disc diameter 6.35 mm, read-out: Zone Diameters
Method: as §2

Diplococcus pneumoniae = assay: standard disc-plate assay; format: cell-based; details: Streptococcus pneumoniae, disc diameter 6.35 mm, read-out: Zone Diameters
Method: as §2

[7] = tested on: Staphylococcus aureus 3055; assay: standard disc-plate assay; format: cell-based; details: Penicillin-G susceptible, disc diameter 6.35 mm, read-out: Zone Diameters
Method: as §2

[8] = tested on: Staphylococcus aureus 3074; assay: standard disc-plate assay; format: cell-based; details: Penicillin-G resistant, disc diameter 6.35 mm, read-out: Zone Diameters
Method: as §2

[9] = tested on: Streptococcus pneumoniae Park I; assay: experimental bacterial infection in mice; format: in vivo; details: sc, read-out: ED50 × 2
bacteria of Table V = assay: gradient-plate agar-dilution method, series of in vitro tests; format: cell-based
[10] = tested on: Streptococcus sp. 9960 (Group D); assay: gradient-plate agar-dilution method; format: cell-based
[11] = tested on: Hemophilus influenzae Brun; assay: gradient-plate agar-dilution method; format: cell-based; details: Haemophilus influenzae
electrometric titration = format: physicochemical; details: 66 percent aqueous dimethylformamide
[12] = tested on: Peptococcus asaccharolyticus; assay: standard agar-dilution test, anaerobic bacteria; format: cell-based; details: Peptoniphilus asaccharolyticus, 2 h
[13] = tested on: Hemophilus influenzae 251; assay: gradient-plate agar-dilution method; format: cell-based; details: Haemophilus influenzae
[14] = acute toxicity, intraperitoneal injection in mice; details: mouse, in vivo, ip
Excerpt: A special advantage of the A-40104 antibiotics is that they are relatively nontoxic.

Fusobacterium symbiosum = assay: standard agar-dilution test, anaerobic bacteria; format: cell-based; details: 2 h
[15] = tested on: pathogenic organisms, particularly gram-positive bacteria; assay: antibacterial activity (general statement); format: cell-based
Streptococcus pyogenes [16] = assay: gradient-plate agar-dilution method; format: cell-based
[17] = tested on: Streptococcus sp. X-66 (Group D); assay: gradient-plate agar-dilution method; format: cell-based
Bacteroides vulgatis = assay: standard agar-dilution test, anaerobic bacteria; format: cell-based; details: 2 h
[18] = tested on: Bacteroides fragilis 1877; assay: standard agar-dilution test, anaerobic bacteria; format: cell-based; details: Bacteroides fragilis, 1877, 2 h
[19] = tested on: Peptostreptococcus intermedius; assay: standard agar-dilution test, anaerobic bacteria; format: cell-based; details: 2 h
[20] = tested on: Neisseria gonorrhea Sand.; assay: gradient-plate agar-dilution method; format: cell-based
Clostridium perfringens = assay: microbe, parasite or virus in culture; format: cell-based
[21] = tested on: Hemophilus influenzae 259; assay: gradient-plate agar-dilution method; format: cell-based; details: Haemophilus influenzae
[22] = tested on: Hemophilus influenzae Laiv.; assay: gradient-plate agar-dilution method; format: cell-based; details: Haemophilus influenzae
[23] = tested on: Fusobacterium necrophorum; assay: standard agar-dilution test, anaerobic bacteria; format: cell-based; details: 2 h
Neisseria gonorrhea = assay: gradient-plate agar-dilution method; format: cell-based
Actinomyces israelii = assay: standard agar-dilution test, anaerobic bacteria; format: cell-based; details: read after 2 hours incubation
Excerpt: (§3) Table VIII summarizes the activity of A-40104 factor A, as determined by the standard agar-dilution test.
(§4) *MIC determined by the agar-dilution method. Endpoints were read after 2

Eubacterium aerofacines = assay: standard agar-dilution test, anaerobic bacteria; format: cell-based; details: 2 h
Excerpt: as §3, §4

[24] = tested on: Bacteroides thetaiotaomicron; assay: standard agar-dilution test, anaerobic bacteria; format: cell-based; details: 2 h
Excerpt: as §3, §4

[25] = tested on: Peptostreptococcus anaerobius; assay: standard agar-dilution test, anaerobic bacteria; format: cell-based; details: 2 h
Excerpt: as §3, §4

[26] = tested on: Bacteroides melaninogenicus 1856/28; assay: standard agar-dilution test, anaerobic bacteria; format: cell-based; details: Prevotella intermedia, read after 2 hours incubation
Excerpt: as §3, §4

C=CC1(C)CC(OC(=O)CO[C@@H]2OC[C@@H](O)[C@H](O)[C@H]2O)C2(C)C(C)CCC3(CCC(=O)C32)C(C)C1O (stereo partly drawn) [A-40104 factor A, β,D-xylopyranosyl acetal derivative of pleuromutilin]
in vivo antimicrobial activity [1]: have shown in vivo antimicrobial activity | MIC [2]: 0.5 µg/mL (≈ 0.979 µM) | MIC (Bacteroides fragilis 111): 8 µg/mL (≈ 15.7 µM) | ED50 [3]: 15.7 mg/kg | MIC (Pasteurella hemolytica): 25 µg/mL (≈ 49 µM) | MIC [4]: 6.25 µg/mL (≈ 12.2 µM) | zone of inhibition at 10 µg/disc (Streptococcus pyogenes [5]; 10 mcg/disc): 21 mm | zone of inhibition at 100 µg/disc (Streptococcus pyogenes [5]; 100 mcg/disc): 27 mm | zone of inhibition at 10 µg/disc ([6]; 10 mcg/disc): 29.2 mm | zone of inhibition at 100 µg/disc ([6]; 100 mcg/disc): 34 mm | zone of inhibition at 10 µg/disc (Streptococcus sp. 9960; 10 mcg/disc): 0 mm | zone of inhibition at 100 µg/disc (Streptococcus sp. 9960; 100 mcg/disc): 8.7 mm | zone of inhibition at 10 µg/disc (Diplococcus pneumoniae; 10 mcg/disc): 14 mm | zone of inhibition at 100 µg/disc (Diplococcus pneumoniae; 100 mcg/disc): 20 mm | zone of inhibition at 10 µg/disc ([7]; 10 mcg/disc): 27.2 mm | zone of inhibition at 100 µg/disc ([7]; 100 mcg/disc): 31.2 mm | zone of inhibition at 10 µg/disc ([8]; 10 mcg/disc): 25.4 mm | zone of inhibition at 100 µg/disc ([8]; 100 mcg/disc): 29.2 mm | ED50 [9]: 21.5 mg/kg | comparison with ampicillin (bacteria of Table V): compares favorably with ampicillin | MIC [10]: 70 µg/mL (≈ 137 µM) | MIC [11]: 2 µg/mL (≈ 3.92 µM) | titratable groups (electrometric titration): no titratable groups are present | MIC [12]: ≤ 0.5 µg/mL | MIC [13]: 0.7 µg/mL (≈ 1.37 µM) | LD50 [14]: > 300 mg/kg | MIC (Fusobacterium symbiosum): 4 µg/mL (≈ 7.83 µM) | growth inhibition of pathogenic organisms [15]: inhibit the growth of certain pathogenic organisms, particularly gram-positive bacteria | MIC (Streptococcus pyogenes [16]): < 0.01 µg/mL | MIC [17]: 0.5 µg/mL (≈ 0.979 µM) | MIC (Bacteroides vulgatis): 4 µg/mL (≈ 7.83 µM) | MIC [18]: 8 µg/mL (≈ 15.7 µM) | MIC [19]: ≤ 0.5 µg/mL | MIC [20]: 0.07 µg/mL (≈ 0.137 µM) | MIC (Clostridium perfringens): 8 µg/mL (≈ 15.7 µM) | MIC [21]: 0.7 µg/mL (≈ 1.37 µM) | MIC [22]: 4 µg/mL (≈ 7.83 µM) | MIC [23]: ≤ 0.5 µg/mL | MIC (Neisseria gonorrhea): 0.5 µg/mL (≈ 0.979 µM) | MIC (Actinomyces israelii): ≤ 0.5 µg/mL | MIC (Eubacterium aerofacines): 16 µg/mL (≈ 31.3 µM) | MIC [24]: 2 µg/mL (≈ 3.92 µM) | MIC [25]: 2 µg/mL (≈ 3.92 µM) | MIC [26]: 4 µg/mL (≈ 7.83 µM)
